Consider 1 compound from article PMC12030062, “From In Vitro Cytotoxicity to In Vivo Zebrafish Assays: A Study on 3,3-Dichloro β-, γ- and δ-Lactams and Their Biological Activity Profiles” (Pharmaceuticals, 2025).

Series [1] has as its system A431 cell line (squamous cell carcinoma). The series is described as follows: Cell viability, MTT assay, A431. It counts as cell-based. As for the experimental part: Two different endpoints, 3-(4,5-dimethyl-2-thiazolyl)-2,5-diphenyltetrazolium bromide (MTT) and neutral red uptake (NRU), were used to assess differences in cell-induced cytotoxicity. […] In addition, NRU evaluates the interaction of these drugs with the plasmatic membrane. Cell responses were determined from the MTT [16] and NRU [17] assays, using the two proposed cell lines. Cytotoxicity assays were performed at concentrations equal to 80 and 250 µg/mL. The IC50 value, referring to the half-maximal inhibitory concentration, was determined as a key parameter in cytotoxicity studies (Table 1). It plays a crucial role in evaluating cell viability and assessing cellular responses to various drugs or toxins. For cases where IC50 values were below 80 µg/mL, additional studies at lower concentrations were conducted to accurately determine these values. […] The selectivity index (SI), used as a measurement of action against the tumor cell line in comparison with a normal cell line, was also included.
• In Vitro Assay Using Human Erythrocytes • - Acquisition and Extraction of the Erythrocytes Human blood samples were obtained from the Banc de Sang i Teixits de Barcelona (Spain) from the Catalan Department of Health. Blood was deposited in tubes with the anticoagulant EDTA-K3. Blood samples were centrifuged at 3000 rpm and 4 °C for 10 min (Megafuge 2.0 R. Heraeus Instruments, Hanau, Germany) to induce sedimentation. Plasma was extracted with a Pasteur pipette. Next, the residual pellet was washed with PBS at pH 7.4. This procedure was repeated three times to remove residual leukocytes and platelets and to concentrate the erythrocytes. Following the last wash, the erythrocyte suspension was diluted (1:1) in PBS at pH 7.4 to obtain a suitable erythrocyte suspension (cell density of 8 × 10^9 cell/mL). • - Hemolysis Assay The hemolysis assay determined the capability of different compounds to induce the hemolysis of the erythrocyte membrane. Stock solutions of each compound at 1 mg/mL in PBS at pH 7.4 were prepared. Different volumes (10–80 μL) were placed in polystyrene tubes, and an aliquot of 25 µL of the erythrocyte suspensions was added to each tube. The final volume was 1 mL. The tubes were incubated at room temperature under rotatory conditions. Then, the tubes were centrifuged at 10,000 rpm for 5 min. The supernatants’ absorbance at 540 nm (Shimadzu UV-160A, Shimadzu, Duisburg, Germany) was compared with that of the positive (erythrocytes hemolyzed with distilled water) and negative (erythrocyte suspension in PBS at pH 7.4) controls. The degree of hemolysis was determined using the following equation: Hemolysis (%) = 100 × (Abs − Abs0)/(Abs100 − Abs0) where Abs, Abs0, and Abs100 are the absorbance of the test samples, of the suspension treated with isotonic phosphate–buffered saline (PBS), and of the suspension of complete hemolysis treated with distilled water, respectively. • In Vitro Essay Using Cell Cultures The murine Swiss albino fibroblasts (3T3) and the squamous cell carcinoma (A431) cell lines were obtained from Celltec UB. Cells were grown in DMEM medium (4.5 g/L glucose) supplemented with 10% (v/v) FBS, 2 mM L-glutamine, 100 U/mL penicillin, and 100 µg/mL streptomycin at 37 °C with 5% CO2. Cells were routinely cultured in 75 cm^2 culture flasks and were trypsinized using trypsin–EDTA when the cells reached approximately 80% confluence. The trypan blue assay, which allows for the direct identification and enumeration of the live (unstained) and dead (blue) cells in the cell population, was used to evaluate the viability of the cells in the cell suspension obtained. • - Cell Viability Assays Cell lines of 3T3 (1 × 10^5 cells/mL) and A431 (5 × 10^4 cells/mL) were grown at defined densities in the 60 central wells of a 96-well plate. The cells were incubated for 24 h in 5% CO2 at 37 °C. […]
For orientation: Tetrazolium assays rely on reduction of a dye to a coloured formazan, in cell work by metabolically active cells.

The test system of another series is Zebrafish embryos. It is filed as in vivo. Particulars: 74 hpf after 2-h washout; all tested concentrations up to 3.4 µg/mL. Here is the method: Additionally, at 74 hpf, following a 2-h washout period, the response to a tactile stimulus or touch-evoked response, also known as a TER, was evaluated in embryos. This assay requires the embryos to have proper neuromuscular function. […] Further studies might be needed to elucidate the specific mechanisms by which the compound affects neurodevelopment or motor function and to determine whether these effects translate to other organisms. These findings are consistent with the broader body of research on anticancer agents, highlighting the importance of neurotoxicity evaluation in drug development and reinforcing the need for ongoing research to address these concerns. The videos and figures related to this part of the work are available in the Supplementary Materials.
• Zebrafish egg production and exposure The study was conducted in accordance with the local legislation and institutional requirements, according to the Generalitat de Catalunya Decree 53/2013, which regulates the use of animals for experimental and other scientific purposes. […] At the end of the test, dysmorphogenesis was evaluated in the live embryos only. The average lethality and dysmorphogenesis were calculated for 10 embryos per concentration, followed by averaging the results of at least three independent experiments. […]

In brackets after ≈: the same amount, converted by molar mass.

Broadly, the IC50 is the concentration needed to halve the response being measured. For `CC(C)(C)N1C(=O)C(Cl)(Cl)C1c1ccccc1` (centres unmarked) [Compound 1], the “IC50 (MTT) A431” value in series [1] (24 h incubation, MTT endpoint, A431) is 71.65 ± 1.23 µg/mL (≈ 263 µM). For the same compound, the IC50 in series [1] (Homo sapiens, A-431, 24 h, 24 h incubation, MTT endpoint, A431, read-out: IC50 (MTT) A431) came out at 71 µg/mL (≈ 261 µM). Also, the “SI (MTT), selectivity index” value in series [1] (SI = IC50 (3T3)/IC50 (A431), MTT) worked out at 2.94. For the same compound, the “selective cytotoxicity, A431 in comparison with 3T3 cells” value in series [1] (lower IC50 for A431 than 3T3) is given as “some selective cytotoxicity”. For the same compound, the “touch-evoked response (TER), swimming distance” value in the series on Zebrafish embryos was “significant neurodevelopmental adverse effect”.
